Experimental data published in patent US20170168067A1, “CHROMATIN-ACTIVITY-BASED CHEMOPROTEOMIC (CHAC) METHODS AND SYSTEMS FOR DISEASE MARKER DISCOVERY AND DEVELOPMENT” (The University of North Carolina at Chapel Hill, priority 2014, published 2017).
Peptide text beside a SMILES is read from it. * marks the point of attachment. Cbz = O=C(OCc1ccccc1)*

Columns and labels:
c-Myc [1] = assay: c-Myc accumulation after proteasome inhibition, immunoblot; type: cell-based, mouse; settings: LPS-primed, 10 mM MG-132
Experimental: Raw264.7 or TLR4/MD2/CD14 293 cell lines were primed with 100 ng/ml^−1 LPS for 24 h and then treated with 1 mg/ml^−1 cycloheximide (Sigma-Aldrich; #C4859) for indicated time. Cells were harvested and subjected to immunoblot analysis by using anti-c-Myc antibody. Exposed films of immunoblot were scanned and quantified by ImageJ densitometry software. The intensity of each band was plotted in scatter plot and c-Myc half-life was determined on computed curve. Raw264.7 cells were primed with 100 ng/ml^−1 LPS for 24 h and then treated with 10 mM MG-132 for time indicated. C-Myc accumulation was reflected in immunoblot against c-Myc by short- and long-exposure. b-Actin and g-Tubulin were represented as loading controls.

G9a [2] = assay: ChIP abundance of G9a within T-class promoters; type: cell-based, mouse; settings: pre-treated TL cells
Experimental: (§1) ChIP experiments for studying histone modifiers and TFs were carried out in dual crosslinking way (Porro et al., 2007) with minor modifications. Cells were fixed using 2 mM DSG (disuccinimidyl glutarate, ProteomChem #c1104) for 45 min. Formaldehyde (1% v/v) was then added and incubated for 15 min. Crosslinking reactions were quenched by adding glycine to 0.1 M, followed by PBS washing. Cells were scraped and nuclei were pelleted by 0.5% NP-40 lysis buffer (50 mM pH 8.0 Tris-HCl, 85 mM KCl, 0.5% NP-40). The nuclear fraction was extracted with RIPA buffer (50 mM pH 8.0 Tris-HCl, 150 mM NaCl, 1 mM EDTA, 1% Triton-X-100, 0.1% SDS, 0.1% sodium deoxycholate) and sonicated to 200 to 1,000 bp DNA fragments, then incubated overnight with the antibody. The antibody complexes were linked to protein A/salmon sperm DNA beads (Cell Signaling, cat #9007) and washed thoroughly. The complexes were then eluted from the beads by 1% SDS, and incubated with NaCl to reverse the crosslinked products. Later, proteins were digested by protease-K and the released DNA was purified by QIAquick PCR purification Kit (Qiagen, cat #28104), and processed to quantitative PCR assay. ChIP experiments for studying histone post-PTMs were started from a one-step fixation of 1% (v/v) formaldehyde for 10 min, followed by the same steps as dual crosslinking ChIP described above.

G9a [3] = target: T1, G9a (Homo sapiens, UniProt Q96KQ7); settings: Vedadi et al., 2011; cited from earlier work
T1 sequence (Q96KQ7 1-1210): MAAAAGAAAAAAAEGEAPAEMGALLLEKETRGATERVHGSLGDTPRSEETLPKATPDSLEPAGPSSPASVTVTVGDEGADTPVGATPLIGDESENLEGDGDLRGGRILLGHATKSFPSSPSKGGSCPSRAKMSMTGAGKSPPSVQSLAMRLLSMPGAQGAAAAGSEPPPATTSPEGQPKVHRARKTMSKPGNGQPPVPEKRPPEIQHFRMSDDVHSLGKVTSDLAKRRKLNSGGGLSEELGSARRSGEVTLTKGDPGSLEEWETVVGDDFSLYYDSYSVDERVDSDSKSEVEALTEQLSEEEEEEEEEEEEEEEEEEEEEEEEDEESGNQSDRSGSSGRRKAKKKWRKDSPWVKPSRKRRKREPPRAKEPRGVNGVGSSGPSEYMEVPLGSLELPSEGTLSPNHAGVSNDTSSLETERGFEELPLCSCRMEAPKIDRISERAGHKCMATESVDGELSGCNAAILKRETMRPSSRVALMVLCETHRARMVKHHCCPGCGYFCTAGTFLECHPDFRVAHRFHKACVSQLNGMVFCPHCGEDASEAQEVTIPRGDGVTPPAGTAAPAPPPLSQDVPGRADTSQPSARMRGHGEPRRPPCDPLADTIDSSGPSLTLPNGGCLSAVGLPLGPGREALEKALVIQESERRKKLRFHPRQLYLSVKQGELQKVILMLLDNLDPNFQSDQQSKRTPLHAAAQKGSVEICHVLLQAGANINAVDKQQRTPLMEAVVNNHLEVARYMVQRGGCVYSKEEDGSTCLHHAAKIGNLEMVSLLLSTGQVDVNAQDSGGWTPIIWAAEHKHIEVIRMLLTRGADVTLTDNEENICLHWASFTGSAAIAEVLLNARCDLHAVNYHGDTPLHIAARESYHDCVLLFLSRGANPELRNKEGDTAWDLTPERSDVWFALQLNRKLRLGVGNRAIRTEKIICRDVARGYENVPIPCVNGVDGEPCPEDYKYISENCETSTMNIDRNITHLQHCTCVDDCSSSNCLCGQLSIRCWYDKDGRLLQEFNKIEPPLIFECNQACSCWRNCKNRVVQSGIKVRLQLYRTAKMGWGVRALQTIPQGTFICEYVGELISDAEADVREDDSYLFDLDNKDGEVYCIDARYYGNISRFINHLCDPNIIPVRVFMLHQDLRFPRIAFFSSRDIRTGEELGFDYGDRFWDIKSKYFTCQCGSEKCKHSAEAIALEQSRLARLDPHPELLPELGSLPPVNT

MTA1 = assay: ChIP-PCR binding of MTA1 to T-class genes; type: cell-based, mouse; settings: treated BMDMs
Experimental: as §1

H3K9me2 = assay: ChIP analysis with anti-H3K9me2 antibody in BMDMs; type: cell-based, mouse; settings: BMDMs treated prior to LPS stimulation; inhibitor pre-treated TL cells compared with NL
Experimental: as §1

H3K27 = assay: immunoblot analysis of methylated H3K27; type: cell-based, mouse; settings: treated cells
Experimental: (§2) Core histone proteins were prepared by Histone Purification Mini Kit (Active Motif; cat#40026). Adhered cells were washed with prewarmed serum-free media twice and were then harvested. The pellet was lysed with 1.5 ml extraction buffer per 2×10^7 cells and homogenized by repetitive pipetting. The cell lysate was processed under agitation for 2 h at 4° C. before the crude histone was clarified, neutralized and loaded onto the column. Histone proteins were purified by a C8 column and were precipitated by 4% perchloric acid according to the manufacturer's instructions and were resolved in HPLC water. All steps were processed on ice or in cold room, for the maximum preservation of histone modifications.

Raw264.7 cells = assay: Clonogenic survival assay; type: cell-based, mouse; parameters: dose or concentration left out as unconfirmed
Experimental: Raw264.7 cells were counted and plated in six-well cell culture plates with 50, 100 and 200 viable cells in duplicated wells. Cells were primed with 100 ng/ml^−1 LPS for […] to reach the condition of ET and replenished with fresh media. […] After 9-day cell growth, cell colonies were washed with PBS, fixed with a mixture of methanol-acetic acid (3:1 in volume ratio) for 10 min, stained with 10% Giemsa (Ricca Chemical Company, Arlington, Tex., United States of America) for 30 min, gently washed with water and air dried. The colonies containing more than 20 cells were counted and the percentage of the survived cells under each condition was determined compared with the number of colonies on non-LPS or UNC0638-treated plates.

HDAC1 = assay: ChIP-PCR binding of HDAC1 to T-gene (IL6) promoter; type: cell-based, mouse; settings: treated BMDMs during ET
Experimental: as §1

BMDM secretome = assay: Label-free quantitative analysis of macrophage secretome; type: cell-based, mouse; settings: BMDMs under TL pre-treated with 250 nM for 16 h
Experimental: Referring now to FIG. 1, cells were then either left unstimulated (N) or subjected to a single LPS challenge at 500 ng/ml^−1 for indicated hours (NL) or first primed with 100 ng/ml^−1 LPS to induce the ET for 24 h, followed by the second LPS challenge at 500 ng/ml^−1 for indicated hours (TL). Before the LPS challenge, cells were washed once and cultured in serum-free DMEM without phenolred, containing 1 mM sodium pyruvate and 10 mM L-glutamine. The secreted proteins were harvested and prepared (Meissner et al., 2013).
LFQ secretome analyses were performed via reversed phase LC-MS/MS using a Proxeon 1000 nano LC system coupled to an Q Exactive mass spectrometer (Thermo Scientific). […]
Label-free quantitation was based on the peak area (Cox et al., 2008; Gunawardena et al., 2013; Gunawardena et al., 2011; Porro et al., 2007). The measured area under the curve of m/z and retention time aligned extracted ion chromatogram (XIC) of a peptide was performed via the label-free quantitation module found in MaxQuant™ (vera 1.3.0.5) (Cox et al., 2008). All replicates (biological and technical replicates) of each experimental conditions: N, NL-16 h, TL-16 h, were included in the LFQ experimental design with protein-level quantitation and normalization performed using unique and razor peptide features corresponding to identifications filtered with a peptide FDR of 0.01 and protein FDR of 0.05. […]

c-Myc [4] = assay: ChIP-qPCR binding of c-Myc to gene loci; type: cell-based, mouse
Experimental: as §1

H3K36me2 = assay: immunoblot analysis of dimethylated H3K36; type: cell-based, mouse; settings: treated vs non-treated BMDMs, TL
Experimental: as §2

Compound: CC(C)C[C@@H](C=O)NC(=O)[C@H](CC(C)C)NC(=O)[C@H](CC(C)C)NC(=O)OCc1ccccc1 [MG-132] (Cbz-Leu-Leu-Leu-aldehyde)
- c-Myc level with post-treatment time (c-Myc [1]; G9a-KD Raw264.7 cells): progressive accumulation
- c-Myc level with longer post-treatment time (c-Myc [1]; wild-type Raw264.7 cells (presence of G9a)): reduced

Compound: O=C(CCCCCCC(=O)Nc1ccccc1)NO [SAHA]
- abundance of G9a within the T-class promoters (G9a [2]): reduced

Compound: COc1cc2c(NC3CCN(C(C)C)CC3)nc(C3CCCCC3)nc2cc1OCCCN1CCCC1 [UNC0638, 2-Cyclohexyl-N-(1-isopropylpiperidin-4-yl)-6-methoxy-7-(3-(pyrrolidin-1-yl)propoxy) quinazolin-4-amine]
- change in abundance of G9a (G9a [3]): little change
- TL-specific binding of MTA1 to T-class genes (MTA1): diminished
- change in H3K9me2 (ChIP) (H3K9me2): greater decreases
- methylated level of H3K27 (H3K27): reduced
- percentage of survived cells (Raw264.7 cells; cells under TL, 9-day growth): significantly reduced
- percentage of survived cells (Raw264.7 cells; non-treated (non-LPS) wild-type cells): little effect
- IL6-specific binding of HDAC1 (HDAC1): diminished
- share of 992 identified proteins showing repressed releases whose secretion levels increased (BMDM secretome): 45%
- c-Myc binding to the NT-genes (c-Myc [4]): not affected
- c-Myc binding to the loci of IL6 (c-Myc [4]; treated BMDMs under TL): diminished
- c-Myc binding to IL6, IP-10 and p21 (c-Myc [4]; under TL): reduced
- level of H3K36me2 (H3K36me2): decreased
